Source: PMC3644221 (Toxicology letters, 2013)

Target: CYP1A1 (Homo sapiens, UniProt P04798)
Assay: inhibition of CYP1A1-specific Luciferin-CEE activity
Type: biochemical

CYP1A1, sequence (P04798 whole entry): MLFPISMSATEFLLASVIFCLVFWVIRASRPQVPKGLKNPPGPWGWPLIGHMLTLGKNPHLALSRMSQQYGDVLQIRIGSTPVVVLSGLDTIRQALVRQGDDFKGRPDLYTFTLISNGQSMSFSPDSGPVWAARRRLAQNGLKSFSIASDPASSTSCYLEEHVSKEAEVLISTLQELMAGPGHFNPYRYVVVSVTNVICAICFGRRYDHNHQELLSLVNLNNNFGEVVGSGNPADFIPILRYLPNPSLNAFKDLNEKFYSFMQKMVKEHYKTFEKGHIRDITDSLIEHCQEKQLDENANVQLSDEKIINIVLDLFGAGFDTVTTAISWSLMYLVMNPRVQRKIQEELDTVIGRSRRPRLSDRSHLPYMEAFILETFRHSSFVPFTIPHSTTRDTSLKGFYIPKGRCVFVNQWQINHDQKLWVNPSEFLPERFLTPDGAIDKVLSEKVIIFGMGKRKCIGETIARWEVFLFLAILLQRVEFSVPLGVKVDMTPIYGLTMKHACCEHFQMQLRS

| SMILES | IC50 [µM] |
| --- | --- |
| Oc1ccc(-c2[o+]c3cc(O)cc(O)c3cc2O)cc1 [pelargonidin] | 33 |
| Oc1cc(O)c2cc(O)c(-c3cc(O)c(O)c(O)c3)[o+]c2c1 [delphinidin] | 77 |
